Source: the supplement of paper PMC12463676, “Small-molecule dissolution of stress granules by redox modulation benefits ALS models” (Nature Chemical Biology, 2025)

Legend:
potassium arsenate = compound: O=[As]([O-])(O)O.[K+] [potassium arsenate]; assay: thermal stability z-score vs DMSO; higher = more thermally stabilized by treatment; settings: HeLa; arsenate concentration 1 mM
Protocol: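 Cellular thermal proteome profiling in HeLa cells treated with 1 mM arsenate for 1 h (DMSO pretreatment), heated to ten temperatures (37-66.3 °C). Soluble protein was quantified by TMT mass spectrometry relative to DMSO controls; the thermal stability score was transformed to a z-score; mean of n = 3 experiments.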

lipoamide = compound: NC(=O)CCCCC1CCSS1 [lipoamide]; assay: as above; settings: HeLa, lipoamide concentration 100 µM
Protocol: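 Cellular thermal proteome profiling in HeLa cells. Cells were treated with 100 µM lipoamide for 1 h, with or without 1 mM arsenate for a further 1 h, then heated to ten temperatures (37-66.3 °C), and soluble protein was quantified by TMT mass spectrometry relative to 0.1% DMSO controls. The thermal stability score (sum of log2 fold changes minus the abundance score) was transformed to a z-score; mean of n = 3 experiments.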

[1] = arsenate co-treatment: 1 mM arsenate 1 h
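Further: each temperature applied for 3 min, abundance score taken as mean log2 fold change at the two lowest temperatures, z-score obtained by mean subtraction and division by SD.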

Sequence of UniProt P37802 (P37802 whole entry): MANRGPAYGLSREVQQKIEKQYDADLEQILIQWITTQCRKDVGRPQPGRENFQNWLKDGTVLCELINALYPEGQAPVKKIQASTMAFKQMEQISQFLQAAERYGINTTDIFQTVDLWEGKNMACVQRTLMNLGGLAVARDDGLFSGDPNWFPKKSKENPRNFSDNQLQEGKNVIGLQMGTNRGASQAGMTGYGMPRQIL
Sequence of UniProt Q9UBD5 (Q9UBD5 whole entry): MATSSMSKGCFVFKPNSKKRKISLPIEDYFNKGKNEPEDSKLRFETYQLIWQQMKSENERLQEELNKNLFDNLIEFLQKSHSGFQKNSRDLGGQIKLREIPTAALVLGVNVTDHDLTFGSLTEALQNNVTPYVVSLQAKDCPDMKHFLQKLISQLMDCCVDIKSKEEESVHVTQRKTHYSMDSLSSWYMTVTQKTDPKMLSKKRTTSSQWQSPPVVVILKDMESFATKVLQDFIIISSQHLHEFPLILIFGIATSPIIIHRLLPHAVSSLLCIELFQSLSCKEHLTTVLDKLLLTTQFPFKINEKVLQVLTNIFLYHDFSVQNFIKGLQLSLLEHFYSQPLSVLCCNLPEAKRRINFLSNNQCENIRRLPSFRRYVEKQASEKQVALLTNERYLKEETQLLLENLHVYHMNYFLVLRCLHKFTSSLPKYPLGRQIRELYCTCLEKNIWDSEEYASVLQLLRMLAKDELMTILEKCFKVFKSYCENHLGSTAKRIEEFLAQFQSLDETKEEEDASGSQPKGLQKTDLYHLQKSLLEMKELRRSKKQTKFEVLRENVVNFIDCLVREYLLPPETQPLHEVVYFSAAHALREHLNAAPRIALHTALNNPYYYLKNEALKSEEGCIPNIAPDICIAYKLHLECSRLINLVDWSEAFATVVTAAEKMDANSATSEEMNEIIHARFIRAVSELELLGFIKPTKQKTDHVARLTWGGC
Sequence of UniProt P10586 (P10586 whole entry): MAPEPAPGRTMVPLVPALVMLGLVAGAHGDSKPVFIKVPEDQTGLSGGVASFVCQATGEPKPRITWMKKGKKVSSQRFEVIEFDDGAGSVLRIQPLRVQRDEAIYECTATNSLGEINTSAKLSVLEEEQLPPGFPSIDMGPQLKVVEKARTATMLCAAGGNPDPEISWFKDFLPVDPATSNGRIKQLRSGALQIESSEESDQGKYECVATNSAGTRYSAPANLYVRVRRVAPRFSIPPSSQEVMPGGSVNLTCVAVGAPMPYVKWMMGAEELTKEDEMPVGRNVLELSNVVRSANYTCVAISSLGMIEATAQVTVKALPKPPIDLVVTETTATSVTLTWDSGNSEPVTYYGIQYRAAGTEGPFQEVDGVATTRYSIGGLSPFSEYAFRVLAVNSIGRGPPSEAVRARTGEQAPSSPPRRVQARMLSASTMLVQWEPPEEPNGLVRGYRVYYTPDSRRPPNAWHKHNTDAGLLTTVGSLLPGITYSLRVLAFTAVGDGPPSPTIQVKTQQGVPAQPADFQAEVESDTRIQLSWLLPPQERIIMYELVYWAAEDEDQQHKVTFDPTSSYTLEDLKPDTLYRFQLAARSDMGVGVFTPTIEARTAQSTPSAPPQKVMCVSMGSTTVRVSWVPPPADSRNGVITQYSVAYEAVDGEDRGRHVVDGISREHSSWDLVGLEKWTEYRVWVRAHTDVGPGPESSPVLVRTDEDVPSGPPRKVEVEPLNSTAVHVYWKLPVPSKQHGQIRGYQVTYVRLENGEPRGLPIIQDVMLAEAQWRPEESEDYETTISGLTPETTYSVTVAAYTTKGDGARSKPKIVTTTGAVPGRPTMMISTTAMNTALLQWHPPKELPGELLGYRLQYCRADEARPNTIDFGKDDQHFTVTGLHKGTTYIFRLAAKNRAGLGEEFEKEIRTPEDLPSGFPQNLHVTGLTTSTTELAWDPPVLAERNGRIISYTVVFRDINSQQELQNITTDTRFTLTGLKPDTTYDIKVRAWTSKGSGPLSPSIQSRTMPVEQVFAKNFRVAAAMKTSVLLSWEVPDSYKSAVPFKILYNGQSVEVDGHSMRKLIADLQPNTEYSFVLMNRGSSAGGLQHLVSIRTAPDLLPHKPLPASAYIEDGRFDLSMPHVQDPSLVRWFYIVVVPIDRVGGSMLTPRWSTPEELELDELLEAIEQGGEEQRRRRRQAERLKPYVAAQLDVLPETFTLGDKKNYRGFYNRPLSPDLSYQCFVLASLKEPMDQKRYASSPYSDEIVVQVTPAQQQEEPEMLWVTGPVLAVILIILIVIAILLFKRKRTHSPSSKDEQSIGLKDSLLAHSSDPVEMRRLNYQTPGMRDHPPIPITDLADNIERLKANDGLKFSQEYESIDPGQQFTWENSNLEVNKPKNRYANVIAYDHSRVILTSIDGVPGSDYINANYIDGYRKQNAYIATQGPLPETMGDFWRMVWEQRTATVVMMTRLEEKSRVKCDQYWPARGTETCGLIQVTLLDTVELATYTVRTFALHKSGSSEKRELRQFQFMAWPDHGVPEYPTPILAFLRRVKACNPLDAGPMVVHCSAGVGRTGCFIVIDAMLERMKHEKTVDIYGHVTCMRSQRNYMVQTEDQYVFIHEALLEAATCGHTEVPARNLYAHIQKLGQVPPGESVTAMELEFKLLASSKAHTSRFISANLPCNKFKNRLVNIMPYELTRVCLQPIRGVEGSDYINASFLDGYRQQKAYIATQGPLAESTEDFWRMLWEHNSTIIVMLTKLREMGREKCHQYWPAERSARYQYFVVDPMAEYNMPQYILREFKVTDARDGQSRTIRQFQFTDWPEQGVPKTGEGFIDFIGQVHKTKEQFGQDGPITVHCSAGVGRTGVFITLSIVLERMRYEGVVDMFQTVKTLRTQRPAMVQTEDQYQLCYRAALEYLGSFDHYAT
Sequence of UniProt Q13769 (Q13769 whole entry): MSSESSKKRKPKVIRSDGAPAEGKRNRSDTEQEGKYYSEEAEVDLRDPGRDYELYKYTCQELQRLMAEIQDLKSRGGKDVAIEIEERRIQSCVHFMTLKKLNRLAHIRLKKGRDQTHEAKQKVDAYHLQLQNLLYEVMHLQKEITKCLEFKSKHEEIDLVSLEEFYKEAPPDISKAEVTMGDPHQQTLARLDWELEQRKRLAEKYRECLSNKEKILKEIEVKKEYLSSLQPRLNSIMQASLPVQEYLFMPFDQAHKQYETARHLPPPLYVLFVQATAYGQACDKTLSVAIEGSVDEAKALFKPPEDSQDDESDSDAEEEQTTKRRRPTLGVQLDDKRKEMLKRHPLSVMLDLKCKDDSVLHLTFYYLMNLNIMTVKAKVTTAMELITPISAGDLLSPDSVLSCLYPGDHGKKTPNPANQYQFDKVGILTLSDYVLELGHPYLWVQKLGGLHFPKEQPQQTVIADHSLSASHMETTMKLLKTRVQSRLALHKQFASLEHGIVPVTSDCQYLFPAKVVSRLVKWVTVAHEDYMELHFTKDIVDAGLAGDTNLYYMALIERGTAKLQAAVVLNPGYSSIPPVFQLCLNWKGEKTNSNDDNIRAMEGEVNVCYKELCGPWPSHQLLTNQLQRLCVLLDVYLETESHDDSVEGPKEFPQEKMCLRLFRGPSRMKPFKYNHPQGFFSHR
Sequence of UniProt O14979 (O14979 whole entry): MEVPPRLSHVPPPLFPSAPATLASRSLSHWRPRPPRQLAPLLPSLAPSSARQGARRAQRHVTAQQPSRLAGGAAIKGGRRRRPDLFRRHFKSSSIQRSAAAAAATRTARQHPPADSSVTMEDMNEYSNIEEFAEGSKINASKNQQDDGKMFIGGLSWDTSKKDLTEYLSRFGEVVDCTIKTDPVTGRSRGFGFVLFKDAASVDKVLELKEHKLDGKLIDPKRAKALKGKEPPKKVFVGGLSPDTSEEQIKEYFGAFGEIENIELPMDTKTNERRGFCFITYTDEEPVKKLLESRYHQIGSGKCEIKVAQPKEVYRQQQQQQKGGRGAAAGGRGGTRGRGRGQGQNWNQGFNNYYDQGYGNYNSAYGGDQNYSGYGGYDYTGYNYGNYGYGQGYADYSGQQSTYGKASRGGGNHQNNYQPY
Sequence of UniProt O43684 (O43684 whole entry): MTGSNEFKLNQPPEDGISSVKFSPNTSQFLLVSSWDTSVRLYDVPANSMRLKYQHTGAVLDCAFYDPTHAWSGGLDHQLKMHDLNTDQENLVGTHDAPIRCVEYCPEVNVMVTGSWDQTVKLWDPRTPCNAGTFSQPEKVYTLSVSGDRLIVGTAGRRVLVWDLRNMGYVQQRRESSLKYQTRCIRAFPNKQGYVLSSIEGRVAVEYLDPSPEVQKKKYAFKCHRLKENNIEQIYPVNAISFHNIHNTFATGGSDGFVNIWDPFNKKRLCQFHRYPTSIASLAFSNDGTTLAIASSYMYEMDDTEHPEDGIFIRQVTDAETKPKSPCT
Sequence of UniProt Q9UQ80 (Q9UQ80 whole entry): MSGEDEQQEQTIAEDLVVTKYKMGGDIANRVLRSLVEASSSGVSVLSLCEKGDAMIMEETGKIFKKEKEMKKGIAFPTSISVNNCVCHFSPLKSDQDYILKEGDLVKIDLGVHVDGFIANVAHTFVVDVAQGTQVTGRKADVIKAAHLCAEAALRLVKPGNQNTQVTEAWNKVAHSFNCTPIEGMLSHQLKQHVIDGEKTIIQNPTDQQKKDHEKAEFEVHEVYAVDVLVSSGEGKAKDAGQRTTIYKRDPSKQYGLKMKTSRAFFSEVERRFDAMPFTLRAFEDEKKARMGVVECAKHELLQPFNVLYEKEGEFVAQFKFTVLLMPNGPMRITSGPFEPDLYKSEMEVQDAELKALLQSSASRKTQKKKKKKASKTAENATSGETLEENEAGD
Sequence of UniProt P49914 (P49914 whole entry): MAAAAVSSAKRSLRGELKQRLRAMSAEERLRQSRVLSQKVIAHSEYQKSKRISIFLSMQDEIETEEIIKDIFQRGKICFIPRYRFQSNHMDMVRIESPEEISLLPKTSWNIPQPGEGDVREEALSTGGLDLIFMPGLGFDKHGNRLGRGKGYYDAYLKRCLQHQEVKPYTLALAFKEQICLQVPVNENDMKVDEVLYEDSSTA
Sequence of UniProt O43324 (O43324 whole entry): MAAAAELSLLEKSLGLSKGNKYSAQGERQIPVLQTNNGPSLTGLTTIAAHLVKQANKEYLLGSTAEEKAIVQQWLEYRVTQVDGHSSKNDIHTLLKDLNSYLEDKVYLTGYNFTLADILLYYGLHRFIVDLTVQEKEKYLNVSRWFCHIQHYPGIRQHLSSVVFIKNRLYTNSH

Target	thermal stability z-score (potassium arsenate)	thermal stability z-score (lipoamide; [1])	thermal stability z-score (lipoamide; arsenate co-treatment: none)
HCFC1 (UniProt P51610)	-0.101	1.26	1.15
FAM111B (UniProt Q6SJ93)	9.3	4.69	1.31
ENY2 (UniProt Q9NPA8)	0.181	0.894	0.42
ITPR1 (UniProt Q14643)	-0.46	-0.434	-0.461
FAM175B (UniProt Q15018)	-0.57	0.515	0.293
SCFD1 (UniProt Q8WVM8)	0.224	-0.771	-0.32
LYSMD1 (UniProt Q96S90)	0.777	1.23	0.621
CD2BP2 (UniProt O95400)	0.94	0.994	0.894
HELZ (UniProt P42694)	-0.122	-0.153	-0.0553
ADCK4 (UniProt Q96D53)	-0.165	-2.27	-0.801
EEA1 (UniProt Q15075)	-0.325	0.149	0.231
IVD (UniProt P26440)	0.902	0.0798	-0.0801
PA2G4 (UniProt Q9UQ80)	1.4	0.127	0.183
WAPL (UniProt Q7Z5K2)	-0.434	0.0171	0.484
EEF1E1 (UniProt O43324)	0.997	0.552	0.194
BRE (UniProt Q9NXR7)	0.319	0.462	-0.15
DPY19L1 (UniProt Q2PZI1)	-0.259	-0.0328	-0.259
MICA (UniProt Q29983)	-0.775	-1.72	-3.33
SRXN1 (UniProt Q9BYN0)	0.115	0.0621	-0.041
PTPRF (UniProt P10586)	-0.656	-0.381	-0.381
CMTR2 (UniProt Q8IYT2)	-0.0808	0.107	0.13
BTN2A1 (UniProt Q7KYR7)	0.0455	-0.659	-0.638
KBTBD2 (UniProt Q8IY47)	-0.0698	-0.0161	-0.0919
GTPBP2 (UniProt Q9BX10)	0.0134	0.122	0.0371

Target	thermal stability z-score (potassium arsenate)	thermal stability z-score (lipoamide; [1])	thermal stability z-score (lipoamide; arsenate co-treatment: none)
CTSC (UniProt P53634)	-0.148	-0.492	-0.279
TAGLN2 (UniProt P37802)	-0.184	0.511	0.94
ORC3 (UniProt Q9UBD5)	-0.00481	-0.0418	-0.104
SOD2 (UniProt P04179)	0.195	0.512	0.261
CTSZ (UniProt Q9UBR2)	0.529	-1.02	-0.748
HTRA2 (UniProt O43464)	-0.816	-0.984	-0.617
KLC2 (UniProt Q9H0B6)	0.557	-0.0443	0.117
NUP88 (UniProt Q99567)	0.549	-0.607	-0.513
SDHAF3 (UniProt Q9NRP4)	-0.145	-0.644	-0.535
PAXBP1 (UniProt Q9Y5B6)	0.0461	0.125	0.182
CDAN1 (UniProt Q8IWY9)	-0.113	-0.217	-0.235
HNRNPDL (UniProt O14979)	-1.85	0.895	0.34
EPB41L1 (UniProt Q9H4G0)	0.139	-0.509	-0.127
ID1 (UniProt P41134)	-0.00372	0.197	0.0434
MAP2K7 (UniProt O14733)	0.54	-0.121	0.341
SLC25A29 (UniProt Q8N8R3)	-0.111	0.136	-0.0401
SETD3 (UniProt Q86TU7)	0.0633	-0.479	-0.251
NUDT4 (UniProt Q9NZJ9)	-0.881	-0.239	-0.659
ACTR10 (UniProt Q9NZ32)	-0.312	-0.106	0.0788
FUK (UniProt Q8N0W3)	0.0734	0.775	0.461
VKORC1 (UniProt Q9BQB6)	0.856	-1.71	-1.59
MTHFS (UniProt P49914)	-0.488	-0.574	0.036
CNP (UniProt P09543)	-0.287	1.14	0.855
MAP3K7 (UniProt O43318)	0.066	0.164	0.123

Target	thermal stability z-score (potassium arsenate)	thermal stability z-score (lipoamide; [1])	thermal stability z-score (lipoamide; arsenate co-treatment: none)
CKS2 (UniProt P33552)	0.179	0.199	0.17
C2CD2 (UniProt Q9Y426)	0.234	-0.506	0.109
PNPT1 (UniProt Q8TCS8)	0.418	-0.261	-0.271
RBM3 (UniProt P98179)	0.167	0.0805	-0.138
DHRS3 (UniProt O75911)	-0.762	-0.614	-0.616
DNAJC8 (UniProt O75937)	1.25	0.653	0.49
DCTN2 (UniProt Q13561)	0.914	0.321	0.719
CBX4 (UniProt O00257)	0.529	-0.406	0.212
GNS (UniProt P15586)	-0.512	-0.0525	-0.0481
FAM83B (UniProt Q5T0W9)	-2.02	-0.567	-0.89
RBM25 (UniProt P49756)	-0.454	-0.0516	0.34
INPP1 (UniProt P49441)	-1.9	-1.52	-1.35
ACIN1 (UniProt Q9UKV3)	0.115	1.66	0.763
PPA1 (UniProt Q15181)	-0.342	1.07	0.424
PPFIA1 (UniProt Q13136)	0.263	-0.28	-0.239
DDT (UniProt P30046)	0.0872	-0.198	0.134
LRRFIP2 (UniProt Q9Y608)	1.07	1.31	1.11
RABL2A|RABL2B	-0.151	0.0788	-0.011
THOC5 (UniProt Q13769)	0.536	0.945	0.187
MFF (UniProt Q9GZY8)	0.0903	-0.338	-0.0711
HAUS8 (UniProt Q9BT25)	1.71	0.268	0.632
BUB3 (UniProt O43684)	-0.833	-0.0475	-0.134
NAA40 (UniProt Q86UY6)	0.0387	-0.126	0.2
SHQ1 (UniProt Q6PI26)	0.000909	-0.105	0.0326
